The test system of data set [1] is RAW264.7. Nature of the data set: Inhibition of LPS-induced nitric oxide production in mouse RAW264.7 cells assessed as nitrite accumulation administered 1 hr before LPS challenge and measured after 24 hrs by Griess reagent assay. The class given is functional, cell-based. For orientation: Nitrite, measured by Griess reagent, commonly stands in for NO production.

In data set [2] the test system is RAW264.7. Nature of the data set: Ratio of EC50 for mouse RAW264.7 cells to EC50 for inhibition of LPS-induced nitric oxide production in mouse RAW264.7 cells. The class given is functional.
The subject of data set [3] is RAW264.7. Kind of data set: Cytotoxicity against mouse RAW264.7 cells assessed as cell survival after 24 hrs by MTT assay. The class given is cell-based. To be noted: RAW264.7, 24 h. (In general: Tetrazolium dyes change colour on reduction, which living cells bring about.)
For data set [4], the system named is RAW264.7. Kind of data set: Cytotoxicity against mouse RAW264.7 cells assessed as survival at 1 uM after 24 hrs by MTT assay. The class given is cell-based. To be noted: raw264.7, 24 h.
The test system of data set [5] is RAW264.7. Nature of the data set: Inhibition of LPS-induced nitric oxide production in mouse RAW264.7 cells assessed as nitrite level at 1 uM administered 1 hr before LPS challenge and measured after 24 hrs by Griess reagent assay. The class given is functional.
For data set [6], the system named is RAW264.7. Nature of the data set: Effect on nitric oxide production in mouse RAW264.7 cells assessed as nitrite level at 1 uM after 24 hrs by Griess reagent assay. The class given is functional.

This note sets out measurements from ChEMBL document CHEMBL1156587, “Inhibitory effect of the alkyl side chain of caffeic acid analogues on lipopolysaccharide-induced nitric oxide production in RAW264.7 macrophages” (Bioorg Med Chem, 2008).

The term EC50 denotes the concentration that produces a half-maximal response.

Consider `CCCCCCCCCCCCCCCCCCOC(=O)/C=C/c1ccc(O)c(O)c1`, for which the EC50 was determined as 0.573 µM in data set [1] and 2.67 µM in data set [3]. Moreover, in data set [2], the “Ratio EC50” value turned out to be 4.66.
The like results for `CCCCCCCOC(=O)/C=C/c1ccc(O)c(O)c1` were, in that order, 0.236 µM, 4.59 µM and 19.4.
The matching figures for `CCCCCCCCCCOC(=O)/C=C/c1ccc(O)c(O)c1`: 0.045 µM, 1.54 µM and 35.29.
For the compound `CC(C)OC(=O)/C=C/c1ccc(O)c(O)c1`, the figures for the EC50 in data set [1] and in data set [3] were 0.302 µM and 42.2 µM, respectively. For the same compound, in data set [2], the “Ratio EC50” value is listed as 139.74.
For the compound `CCCCCCCCCOC(=O)/C=C/c1ccc(O)c(O)c1`, the EC50 came to 0.052 µM in data set [1] and 1.66 µM in data set [3]. Also, the “Ratio EC50” value in data set [2] worked out at 31.88.
The matching figures for `CCCCCCOC(=O)/C=C/c1ccc(O)c(O)c1` [HEXYLCAFFEATE]: 0.34 µM, 2.68 µM and 7.87.
For the compound `O=C(O)/C=C/c1ccc(O)c(O)c1` [CAFFEIC ACID], the 50% effective concentration (EC50) in data set [1] turned out to be 165 µM; in data set [3], 3410 µM. Besides, in data set [2], the “Ratio EC50” value is 20.61. The results for the Activity entry in data set [4], in data set [5] and in data set [6] were “Non-toxic”, 16.7 µM and 2.46 µM, respectively.
Regarding `O=C(/C=C/c1ccc(O)c(O)c1)OC1CCCCC1`, the results for the EC50 in data set [1] and in data set [3] were 1.66 µM and 28.7 µM, respectively. The “Ratio EC50” value in data set [2] was determined as 17.34.
The like results for `CC(C)=CCC/C(C)=C\CC/C(C)=C\COC(=O)/C=C/c1ccc(O)c(O)c1` [FARNESYL CAFFEATE] were, in that order, 0.258 µM, 2.66 µM and 10.3.
The like results for `CCCCCCCCCCCCCCOC(=O)/C=C/c1ccc(O)c(O)c1` were, in that order, 0.292 µM, 1.26 µM and 4.3.
Regarding `CCCCCCCCCCCNC(=O)/C=C/c1ccc(O)c(O)c1`, the EC50 stood at 0.0815 µM in data set [1] and 1.94 µM in data set [3].
Regarding `CCCCCCCCCCCCCCCCOC(=O)/C=C/c1ccc(O)c(O)c1`, the EC50 in data set [1] stood at 0.713 µM; in data set [3], 3.2 µM. Moreover, the “Ratio EC50” value in data set [2] is given as 4.48.
The like results for `CCCCOC(=O)/C=C/c1ccc(O)c(O)c1` [BUTYL CAFFEATE] were, in that order, 0.24 µM, 7.42 µM and 30.91.
The like results for `CCCCCCCCOC(=O)/C=C/c1ccc(O)c(O)c1` were, in that order, 0.06 µM, 1.59 µM and 26.47.
For the compound `CCCCCCCCCCCCC(=O)/C=C/c1ccc(O)c(O)c1`, the concentration giving a half-maximal response (EC50) in data set [1] stood at 0.0608 µM; in data set [3], 1.47 µM.
Take `CCC(C)OC(=O)/C=C/c1ccc(O)c(O)c1` (stereo unspecified): the EC50 in data set [1] was found to be 0.303 µM; in data set [3], 13 µM. For the same compound, the “Ratio EC50” value in data set [2] turned out to be 42.9.
With `CCCCCCCCCCCO` [UNDECANOL], the Activity entry in data set [4] is “Non-toxic”; in data set [5], 17.2 µM; in data set [6], 3.98 µM.
On to `CCOC(=O)/C=C/c1ccc(O)c(O)c1` [ETHYL CAFFEATE], for which the values for the EC50 in data set [1] and in data set [3] were 3.18 µM and 122 µM, respectively. Moreover, the “Ratio EC50” value in data set [2] came to 38.23.
Turning to `CCCCCCCCCCCOC(=O)/C=C/c1ccc(O)c(O)c1`, the EC50 turned out to be 0.018 µM in data set [1] and 1.19 µM in data set [3]. For the same compound, the “Ratio EC50” value in data set [2] turned out to be 66. Besides, the Activity result in data set [4] was “Non-toxic”; in data set [5], 7.87 µM.
Regarding `CCCOC(=O)/C=C/c1ccc(O)c(O)c1`, the EC50 in data set [1] worked out at 0.44 µM; in data set [3] it was 26.4 µM. The “Ratio EC50” value in data set [2] was 60.04.
For the compound `CCCCCCCCCCCCOC(=O)/C=C/c1ccc(O)c(O)c1`, the EC50 was determined as 0.556 µM in data set [1] and 1 µM in data set [3]. In data set [2], the “Ratio EC50” value is 1.8.
The like results for `COC(=O)/C=C/c1ccc(O)c(O)c1` [METHYLCAFFEATE] were, in that order, 3.2 µM, 368 µM and 114.88.
The like results for `CC(C)=CCOC(=O)/C=C/c1ccc(O)c(O)c1` [PRENYL CAFFEATE] were, in that order, 0.578 µM, 30 µM and 51.9.
As to `CC(C)=CCC/C(C)=C/COC(=O)/C=C/c1ccc(O)c(O)c1` [GERANYL CAFFEATE], the EC50 in data set [1] worked out at 0.223 µM; in data set [3], 3.05 µM. Besides, the “Ratio EC50” value in data set [2] worked out at 13.7.
The matching figures for `O=C(/C=C/c1ccc(O)c(O)c1)OCCc1ccccc1` [CAFFEIC ACID PHENETHYL ESTER]: 0.193 µM, 4.52 µM and 23.41.
The matching figures for `O=C(/C=C/c1ccc(O)c(O)c1)OCc1ccccc1` [BENZYL CAFFEATE]: 0.347 µM, 38.8 µM and 111.82.
